The text below walks through data of BindingDB's records for doi:10.1021/jm00057a008 (American Cyanamid, 1993).

pIC50: −log10 of the molar value.

As a reminder, the pIC50 is the IC50 on a negative log10 scale, so that one unit is a factor of ten. Read a low pIC50 as a high IC50.

In this experiment the target is Platelet-activating factor receptor (Oryctolagus cuniculus). Description: Inhibition of PAF-induced platelet aggregation in rabbit platelet rich plasma.
Turning to `CCCCCCCCCCCCCCOc1ccc(C(=O)NCCc2cccc[n+]2C)cc1` [1-Methyl-2-[2-(4-tetradecyloxy-benzoylamino)-ethyl]-pyridinium; iodide], the pIC50 is under 5.00.

Consider `CCCCCCCCCCCCCCOc1ccc(C(=O)NCc2cccc[n+]2C)cc1` [1-Methyl-2-[(4-tetradecyloxy-benzoylamino)-methyl]-pyridinium; iodide], for which the pIC50 is under 5.00.

`CCCCCCCCCCCCCCOc1ccc(CC(=O)NCCc2cccc[n+]2C)cc1` [1-Methyl-2-{2-[2-(4-tetradecyloxy-phenyl)-acetylamino]-ethyl}-pyridinium; iodide] gave a pIC50 of 4.82.

For the compound `CCCCCCCCCCCCCCOc1ccc(CC(=O)NCc2cccc[n+]2C)cc1` [1-Methyl-2-{[2-(4-tetradecyloxy-phenyl)-acetylamino]-methyl}-pyridinium; iodide], the pIC50 was under 5.00.

Turning to `CCCCCCCCCCCCCCOc1ccc(CNC(=O)c2cc[n+](C)cc2)cc1` [1-Methyl-4-(4-tetradecyloxy-benzylcarbamoyl)-pyridinium; iodide], the pIC50 was 4.22.

`CCCCCCCCCCCCCCOc1ccccc1CN(Cc1cccc[n+]1C)C(C)=O` [2-{[Acetyl-(2-tetradecyloxy-benzyl)-amino]-methyl}-1-methyl-pyridinium; iodide]: the pIC50 is 4.37.

`CCCCCCCOc1ccc(C(=O)N(Cc2cccc[n+]2C)C(C)=O)cc1OCCCCCCC` [2-{[Acetyl-(3,4-bis-heptyloxy-benzoyl)-amino]-methyl}-1-methyl-pyridinium; iodide] had a pIC50 of 5.43.

The compound `CCCCCCCCCCCCCCOc1ccc(C(=O)N(Cc2cccc[n+]2C)C(C)=O)cc1OCCCCCCCCCCCCCC` [2-{[Acetyl-(3,4-bis-tetradecyloxy-benzoyl)-amino]-methyl}-1-methyl-pyridinium; iodide] gave a pIC50 of under 5.00.

The compound `CCCCCCCCCCCCCCOc1ccc(C(=O)N(Cc2cccc[n+]2CC)C(C)=O)cc1OC` [2-{[Acetyl-(3-methoxy-4-tetradecyloxy-benzoyl)-amino]-methyl}-1-ethyl-pyridinium; iodide] showed a pIC50 of 6.80.

`CCCCCCCCCCCCCCOc1ccc(C(=O)N(Cc2cccc[n+]2C)C(C)=O)cc1OC` [2-{[Acetyl-(3-methoxy-4-tetradecyloxy-benzoyl)-amino]-methyl}-1-methyl-pyridinium; iodide] had a negative logarithm of the IC50 (pIC50) of 7.19.

On to `CCCCCCCCCCOc1ccc(C(=O)N(Cc2cccc[n+]2C)C(C)=O)cc1C(C)(C)C` [2-{[Acetyl-(3-tert-butyl-4-decyloxy-benzoyl)-amino]-methyl}-1-methyl-pyridinium; iodide], for which the pIC50 was 5.00.

For the compound `CCCCCCCCCCCCCCCCCCNC(=O)Oc1ccc(C(=O)N(Cc2cccc[n+]2C)C(C)=O)cc1C(C)(C)C` [2-{[Acetyl-(3-tert-butyl-4-octadecylcarbamoyloxy-benzoyl)-amino]-methyl}-1-methyl-pyridinium; iodide], the pIC50 is under 5.00.

Turning to `CCCCCCCCCCCCCCOc1ccc(C(=O)N(Cc2cccc[n+]2C)C(C)=O)cc1C(C)(C)C` [2-{[Acetyl-(3-tert-butyl-4-tetradecyloxy-benzoyl)-amino]-methyl}-1-methyl-pyridinium; iodide], the pIC50 is 7.66.

With `CCCCCCCCCCCCCCOc1cc(C(=O)N(Cc2cccc[n+]2C)C(C)=O)ccc1OC` [2-{[Acetyl-(4-methoxy-3-tetradecyloxy-benzoyl)-amino]-methyl}-1-methyl-pyridinium; iodide], the pIC50 was 3.80.

As for `CCCCCCCCCCCCCCOc1ccc(C(=O)N(Cc2cccc[n+]2Cc2ccccc2)C(C)=O)cc1` [2-{[Acetyl-(4-tetradecyloxy-benzoyl)-amino]-methyl}-1-benzyl-pyridinium; bromide], the pIC50 was 3.48.

With `CCCCCCCCCCCCCCOc1ccc(C(=O)N(Cc2cccc[n+]2C)C(C)=O)cc1` [2-{[Acetyl-(4-tetradecyloxy-benzoyl)-amino]-methyl}-1-methyl-pyridinium; iodide], the pIC50 is 6.02.

For `CCCCCCCCCCCCCCOc1ccc(CN(Cc2cccc[n+]2CC)C(C)=O)cc1` [2-{[Acetyl-(4-tetradecyloxy-benzyl)-amino]-methyl}-1-ethyl-pyridinium; iodide], the pIC50 is 5.08.

For `CCCCCCCCCCCCCCOc1ccc(COC(=O)N(Cc2cccc[n+]2C)C(C)=O)cc1` [2-{[Acetyl-(4-tetradecyloxy-benzyloxycarbonyl)-amino]-methyl}-1-methyl-pyridinium; iodide], the pIC50 was under 5.00.

The compound `CCCCCCCCCCCCCCOc1ccc(C(=O)NC(=O)c2ccc[n+](CCC)c2)cc1OC` [3-(3-Methoxy-4-tetradecyloxy-benzoylaminocarbonyl)-1-propyl-pyridinium; iodide] showed a pIC50 of under 5.00.

Compound `CCCCCCCCCCCCCCOc1ccc(C(=O)N(Cc2ccc[n+](C)c2)C(C)=O)cc1C(C)(C)C` [3-{[Acetyl-(3-tert-butyl-4-tetradecyloxy-benzoyl)-amino]-methyl}-1-methyl-pyridinium; iodide] gave a pIC50 of 4.70.

Take `CCCCCCCCCCCCCCOc1ccc(C(=O)N(Cc2ccc[n+](C)c2)C(C)=O)cc1` [3-{[Acetyl-(4-tetradecyloxy-benzoyl)-amino]-methyl}-1-methyl-pyridinium; iodide]: the pIC50 is 5.17.

The compound `CCCCCCCCCCCCCCOc1ccc(CN(Cc2ccc[n+](C)c2)C(C)=O)cc1` [3-{[Acetyl-(4-tetradecyloxy-benzyl)-amino]-methyl}-1-methyl-pyridinium; iodide] gave a pIC50 of under 5.00.

Consider `CCCCCCCCCCCCCCOc1ccc(CN(Cc2cc[n+](C)cc2)C(C)=O)cc1` [4-{[Acetyl-(4-tetradecyloxy-benzyl)-amino]-methyl}-1-methyl-pyridinium; iodide], for which the pIC50 was 6.00.

In turn, `CCCCCCCCCCCCCCOc1ccc(C(=O)N(Cc2cccc[n+]2[O-])C(C)=O)cc1C(C)(C)C` [N-Acetyl-3-tert-butyl-N-(1-oxy-pyridin-2-ylmethyl)-4-tetradecyloxy-benzamide] showed a negative logarithm of the IC50 (pIC50) of under 5.00.

Turning to `CCCCCCCCCCCCCCOc1ccc(CNC(=O)c2cccc[n+]2CC)cc1` [Trifluoro-methanesulfonate1-ethyl-2-(4-tetradecyloxy-benzylcarbamoyl)-pyridinium;], the negative logarithm of the IC50 (pIC50) is under 5.00.

Compound `CCCCCCCCCCCCCCOc1ccc(COC(=O)NCc2cccc[n+]2CC)cc1` [Trifluoro-methanesulfonate1-ethyl-2-[(4-tetradecyloxy-benzyloxycarbonylamino)-methyl]-pyridinium;] had a pIC50 of under 5.00.

`CCCCCCCCCCCCCCOc1ccc(C(=O)N(Cc2cccc[n+]2CCC)C(C)=O)cc1OC` [Trifluoro-methanesulfonate2-{[acetyl-(3-methoxy-4-tetradecyloxy-benzoyl)-amino]-methyl}-1-propyl-pyridinium;] gave a pIC50 of 7.00.
